Measurements reported in patent publication US6140362A, “Method for inhibiting the growth of mammalian cells” (Rohm and Haas Company, priority 1997, dated 2000).

Columns and labels:
[1] = tested on: mouse lymphoma cell line L5178Y; assay: Growth inhibition of mouse lymphoma cells (L5178Y), 48 h; assay type: cell-based; conditions: 48 hours; for inhibition at 50 µM: 50 micromolar; for inhibition at 2 µM: 2 micromolar; for inhibition at 4 µM: 4 micromolar; for inhibition at 10 µM: 10 micromolar, read-out: Inhibition of growth; for inhibition at 20 µM: 20 micromolar
Procedure: Effects of compounds on growth of mouse lymphoma cell line L5178Y, were determined as follows. Cells were grown in Fischer's medium (obtained from Life Technologies, Inc., Gaithersburg, Md.) containing 0.24 grams per liter (g/l) sodium pyruvate, 1.12 g/l surfactant (Pluronic F-68, from BASF Corporation, Parsippany, N.J.), and 10% by volume (10% v/v) heat-inactivated horse serum (obtained from Life Technologies, Inc) at 37° C. To 30 ml aliquots of cell suspension (2×10^4 cells per milliliter (mL)) in exponential growth phase were added test compounds dissolved in dimethylsulfoxide (DMSO) at various concentrations such that the final DMSO concentration in the mixtures was 0.25%. Tubes were gassed with 5% CO2 then incubated on a roller drum apparatus. After 48 hours the cells were treated with 0.1% trypsin (Life Technologies, Inc.,) for 10 minutes and counted in a Coulter Counter equipped with a 140 micrometer (μM) aperture. Percent inhibition of growth was calculated by comparing the number of cells in assays containing test compound with the number of cells in controls lacking the test compound.

[2] = tested on: Ovarian cancer (OVCAR8); assay: Growth inhibition of human tumor cell lines: Ovarian cancer (OVCAR8); assay type: cell-based; conditions: OVCAR-8, cell line G = Ovarian cancer (OVCAR8), NCI testing
Procedure: (§1) Selected compounds were evaluated by the National Cancer Institute, Bethesda, Md. against 60 human tumor cell lines according to procedures described in Principles and Practices of Oncology, volume 3, issue number 10, pp. 1-12. Results of the testing against representative cell lines including the test compound number, and the GI50 values (μM) are set forth in Table 3. The GI50 value is the concentration required to inhibit cell growth by 50% as compared to untreated control cultures.

[3] = tested on: Melanoma (SKMEL-2); assay: Growth inhibition of human tumor cell lines: Melanoma (SKMEL-2); assay type: cell-based; conditions: SK-MEL-2, cell line F = Melanoma (SKMEL-2), NCI testing
Procedure: as §1

[4] = tested on: tubulin; assay: Inhibition of microtubule assembly; assay type: biochemical, calf; conditions: 50 μM, preincubated 1 h at 37° C.
Procedure: Compounds were evaluated for their ability to inhibit tubulin assembly into microtubules by comparing the extent of cold-reversible assembly in the presence of each test compound with controls lacking the test compound. Tubulin was isolated from calf brain tissue by two cycles of assembly/disassembly as described by Vallee, R. B. in Methods in Enzymology, vol. 134, pp. 89-104. Assay mixtures contained 1 mg/ml of purified tubulin in 1 M sodium glutamate, pH 6.6, 1 millimolar (mM) MgCl2, and the test compound, which was added as a solution in DMSO. The final concentration of DMSO in each assay was 2% (v/v). Assay mixtures were preincubated at 37° C. for 1 h, then chilled on ice for 5 min. Microtubule assembly was initiated by addition of guanosine triphosphate (0.1 mM), and incubation at 37° C. Assembly was followed turbidimetrically at 350 nm for 20 minutes (min) using a temperature-controlled cell in a Cary 2200 spectrophotometer. Since microtubules undergo depolymerization at 0° C., assembly was confirmed by measuring the reduction in turbidity following incubation for 30 min at 0° C. The difference in absorbance before and after incubation for 30 min at 0° C. (ΔA350) represents the extent of microtubule assembly. Inhibition of assembly was calculated by subtracting the (ΔA350) values for treatments with test compounds from the (ΔA350) for controls without test compound, and expressing this difference as a percentage of the (ΔA350) value for the control. Results including test compound number, test compound concentration in micromoles per liter (μM) and percent inhibition are set forth in Table 11.

[5] = tested on: Leukemia (SR); assay: Growth inhibition of human tumor cell lines: Leukemia (SR); assay type: cell-based; conditions: cell line A = Leukemia (SR), NCI testing
Procedure: as §1

[6] = tested on: Small cell lung cancer (DMS 114); assay: Growth inhibition of human tumor cell lines: Small cell lung cancer (DMS 114); assay type: cell-based; conditions: cell line C = Small cell lung cancer (DMS 114), NCI testing
Procedure: as §1

[7] = tested on: Renal cancer (CAKI1); assay: Growth inhibition of human tumor cell lines: Renal cancer (CAKI1); assay type: cell-based; conditions: CAKI-1, cell line H = Renal cancer (CAKI1), NCI testing
Procedure: as §1

[8] = tested on: Colon cancer (HCT116); assay: Growth inhibition of human tumor cell lines: Colon cancer (HCT116); assay type: cell-based; conditions: HCT-116, cell line D = Colon cancer (HCT116), NCI testing
Procedure: as §1

[9] = tested on: Nonsmall cell lung cancer (NCIH522); assay: Growth inhibition of human tumor cell lines: Nonsmall cell lung cancer (NCIH522); assay type: cell-based; conditions: NCI-H522, cell line B = Nonsmall cell lung cancer (NCIH522), NCI testing
Procedure: as §1

[10] = tested on: CNS cancer (SF539); assay: Growth inhibition of human tumor cell lines: CNS cancer (SF539); assay type: cell-based; conditions: SF-539, cell line E = CNS cancer (SF539), NCI testing
Procedure: as §1

`CCC(C)(NC(=O)c1ccc(Cl)nc1)C(=O)CCl` (stereo not shown) [Compound 46] gave an inhibition at 50 µM [1] of 84%.

`CCC(C)(NC(=O)c1cc(Cl)cc(C#N)c1)C(=O)CCl` (stereo not shown) [Compound 3] was tested, and the inhibition at 2 µM [1] was 94%.

`CCC(C)(NC(=O)c1cccc(C#N)c1)C(=O)CCl` (stereo not shown) [Compound 20] was tested, and the inhibition at 4 µM [1] was 96%.

Work on `CC(C)(NC(=O)C(Cl)(Cl)Cl)C(=O)CCl` [Compound 59] yielded an inhibition at 4 µM [1] of 91%.

`CCC(C)(NC(=O)c1cccnc1)C(=O)CCl` (stereo not shown) [Compound 45] gave an inhibition at 50 µM [1] of 36%.

For `CC(C)(NC(=O)c1cc(Cl)cc(Cl)c1)C(=O)C(Br)Br` [Compound 17], the GI50 [2] was 3000 nM, the GI50 [3] was 2710 nM and the “Percent inhibition of microtubule assembly” value (“Percent inhibition” below) [4] was 85.9%. The GI50 [5] was 1790 nM, the GI50 [6] was 2090 nM and the GI50 [7] was 2370 nM. The GI50 [8] was 3650 nM, the inhibition at 2 µM [1] was 97% and the GI50 [9] was 1040 nM. It also gave a GI50 [10] of 2250 nM.

`CCCC(C)(NC(=O)c1cc(Cl)cc(Cl)c1)C(=O)C(Br)Br` (stereo not shown) [Compound 11] showed an inhibition at 2 µM [1] of 88%.

`CC(C)(NC(=O)C1CCCCC1)C(=O)CCl` [Compound 58] showed an inhibition at 50 µM [1] of 77%.

`CCC(C)(NC(=O)c1cc(Cl)c(N)c(C=NOC)c1)C(=O)CCl` (stereo not shown) [Compound 18, 4-amino-3-chloro-5-methoxyiminomethyl-N-(3-chloro-1-ethyl-1-methyl-2-oxopropyl)benzamide] was tested, and the inhibition at 2 µM [1] was 94%.

Compound `CC(C)(NC(=O)c1cc(Cl)cc(Cl)c1)C(=O)CBr` [Compound 29] has an inhibition at 10 µM [1] of 95%.

`CCC(C)(NC(=O)c1cc(Cl)c(C)c(Br)c1)C(=O)CCl` (stereo not shown) [Compound 30] showed an inhibition at 20 µM [1] of 97%.

`CCC(C)(NC(=O)c1cc(Br)c(C)c(Br)c1)C(=O)CCl` (stereo not shown) [Compound 21] gave an inhibition at 4 µM [1] of 97%.

In the case of `CC(C)(NC(=O)c1cc(Br)c(Br)s1)C(=O)CCl` [Compound 47], the inhibition at 20 µM [1] is reported as 96%.

Compound `CCC(C)(NC(=O)c1cccc(C=NOC)c1)C(=O)CCl` (stereo not shown) [Compound 24] has an inhibition at 10 µM [1] of 96%.

Work on `CCC(C)(NC(=O)c1ccc2ncoc2c1)C(=O)CCl` (stereo not shown) [Compound 53] yielded an inhibition at 50 µM [1] of 95%.

Work on `CC(C)(NC(=O)c1ccccc1)C(=O)C(Br)Br` [Compound 16] yielded an inhibition at 2 µM [1] of 98%.

With `CCC(C)(NC(=O)c1ccc2ncsc2c1)C(=O)CCl` (stereo not shown) [Compound 55] the inhibition at 10 µM [1] was 97%.

In the case of `CCC(C)(NC(=O)c1ccc(C)s1)C(=O)CCl` (stereo not shown) [Compound 48], the inhibition at 50 µM [1] is reported as 97%.

For `CCC(C)(NC(=O)c1cccc(Cl)c1)C(=O)CCl` (stereo not shown) [Compound 35], the “Percent inhibition” value [4] was 17.9% and the inhibition at 20 µM [1] was 95%.

Compound `CC(C)(NC(=O)c1cccs1)C(=O)CCl` [Compound 51] has an inhibition at 50 µM [1] of 95%.

For `CCC(C)(NC(=O)c1cc(Cl)c(Cl)c(Cl)c1)C(=O)CCl` (stereo not shown) [Compound 33], the “Percent inhibition” value [4] was 12.2% and the inhibition at 20 µM [1] was 94%.

`CC(C)(NC(=O)C(Cl)(Cl)Cl)C(=O)C(Br)Br` [Compound 60] was tested, and the inhibition at 2 µM [1] was 98%.

Compound `CCC(C)(NC(=O)c1ccc(NC(=O)OC)cc1)C(=O)CCl` (stereo not shown) [Compound 1] has an inhibition at 2 µM [1] of 92%.

In the case of `CCC(CC)(NC(=O)c1cc(Cl)cc(Cl)c1)C(=O)C(Br)Br` [Compound 12], the inhibition at 2 µM [1] is reported as 85%.

For `CC(C)C(C)(NC(=O)c1cc(Cl)cc(Cl)c1)C(=O)C(Br)Br` (stereo not shown) [Compound 8], the inhibition at 2 µM [1] was 83%.

With `CC(C)CC(C)(NC(=O)c1cc(Cl)cc(Cl)c1)C(=O)C(Br)Br` (stereo not shown) [Compound 9] the inhibition at 2 µM [1] was 97%.
